Patent US20240400555A1 (Initial Therapeutics, Inc., priority 2023, published 2024)
pIC50: −log10 of the molar value.

The compounds below were run on MV-4-11 cells (assay: Cell Viability Assay in MV-4-11 Cells). Conditions: Homo sapiens, MV4-11, 72 h.
Type: cell-based
Method in brief: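 Luminescent ATP read-out (CellTiter-Glo) after 72 h compound treatment of MV-4-11 leukaemia cells (7,000 per well, IMDM plus 10% FBS). Values expressed relative to DMSO control and derived by four-parameter non-linear regression.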

Row | Compound | pIC50
1 | Cn1nnc(-c2ccc(C(=O)N(c3nccc4cc(-c5cn[nH]c5)ccc34)[C@@H]3CCCNC3)cc2)n1 [Example 395, (R)—N-(6-(1H-pyrazol-4-yl)isoquinolin-1-yl)-4-(2-methyl-2H-tetrazol-5-yl)-N-(piperidin-3-yl)benzamide] | 6.64
2 | Cc1cccc2ccnc(N(C(=O)c3ccc(C#N)c(-c4ccc(-c5ccccc5)cc4)c3)[C@@H]3CCCNC3)c12 [Example 327, 4-cyano-N-(8-methyl-1-isoquinolyl)-3-(4-phenylphenyl)-N-[(3R)-3-piperidyl]benzamide] | 5.57

Same assay, conditions: Homo sapiens, MV4-11, 72 h, MV-4-11 cells, 72 h, Cell-Titer Glo; read-out: IC50

Row | pIC50 | Compound
3 | 6.08 | Cc1nn(C)c(-c2ccc(C(=O)N(c3nccc4cccc(C)c34)[C@@H]3CCCNC3)c(F)c2)c1N [Example 392, 4-(4-amino-2,5-dimethyl-pyrazol-3-yl)-2-fluoro-N-(8-methyl-1-isoquinolyl)-N-[(3R)-3-piperidyl]benzamide]
4 | 6.54 | Cc1cccc2ccnc(N(C(=O)c3ccc(Nc4nccc(N5CCNC(=O)C5)n4)cc3F)[C@@H]3CCCNC3)c12 [Example 938, (R)-2-fluoro-N-(8-methylisoquinolin-1-yl)-4-((4-(3-oxopiperazin-1-yl)pyrimidin-2-yl)amino)-N-(piperidin-3-yl)benzamide]
5 | 7.01 | COCCc1nnc(-c2ccc(C(=O)N(c3nccc4cccc(C)c34)[C@@H]3CCCNC3)cn2)s1 [Example 910, (R)-6-(5-(2-methoxyethyl)-1,3,4-thiadiazol-2-yl)-N-(8-methylisoquinolin-1-yl)-N-(piperidin-3-yl)nicotinamide]
6 | 6.64 | CNC(=O)c1ccc2c(N(C(=O)c3ccc(-n4nnc5cccnc54)cc3F)[C@@H]3CCCNC3)nccc2c1 [Example 369, (R)-1-(4-(3H-[1,2,3]triazolo[4,5-b]pyridin-3-yl)-2-fluoro-N-(piperidin-3-yl)benzamido)-N-methylisoquinoline-6-carboxamide]
7 | 6.66 | Cc1cccc2ccnc(N(C(=O)c3ccc(Nc4nccc(CCO)n4)cc3F)[C@@H]3CCCNC3)c12 [Example 736, (R)-2-fluoro-4-((4-(2-hydroxyethyl)pyrimidin-2-yl)amino)-N-(8-methylisoquinolin-1-yl)-N-(piperidin-3-yl)benzamide]
8 | 6.28 | Cn1cc(-c2ccc(C(=O)N(c3nccc4cc(-c5ccccc5O)ccc34)[C@@H]3CCCNC3)c(F)c2)nn1 [Example 493, (R)-2-fluoro-N-(6-(2-hydroxyphenyl)isoquinolin-1-yl)-4-(1-methyl-1H-1,2,3-triazol-4-yl)-N-(piperidin-3-yl)benzamide]
9 | 6.38 | Cc1cccc2ccnc(N(C(=O)c3ccc(-c4cncc5c4OCCC5)cc3)[C@@H]3CCCNC3)c12 [Example 922, (R)-4-(3,4-dihydro-2H-pyrano[3,2-c]pyridin-8-yl)-N-(8-methylisoquinolin-1-yl)-N-(piperidin-3-yl)benzamide]
10 | 5.20 | Cn1cc(-c2ccc(C(=O)N(c3nccc4sc(-c5cccc(C(=O)NCCO)c5)cc34)[C@@H]3CCCNC3)c(F)c2)nn1 [Example 542, 2-fluoro-N-[2-[3-(2-hydroxyethylcarbamoyl)phenyl]thieno[3,2-c]pyridin-4-yl]-4-(1-methyltriazol-4-yl)-N-[(3R)-3-piperidyl]benzamide]
11 | 6.10 | Cc1cc(-c2cc3c(N(C(=O)c4ccc(-c5cn(C)nn5)cc4F)[C@@H]4CCCNC4)nccc3s2)ccc1C(N)=O [Example 607, (R)—N-(2-(4-carbamoyl-3-methylphenyl)thieno[3,2-c]pyridin-4-yl)-2-fluoro-4-(1-methyl-1H-1,2,3-triazol-4-yl)-N-(piperidin-3-yl)benzamide]
12 | 5.68 | Cn1cc(-c2ccc(C(=O)N(c3nccc4sc(-c5ccc(C(O)(C(F)(F)F)C(F)(F)F)cc5)cc34)[C@@H]3CCCNC3)c(F)c2)nn1 [Example 604, (R)-2-fluoro-N-(2-(4-(1,1,1,3,3,3-hexafluoro-2-hydroxypropan-2-yl)phenyl)thieno[3,2-c]pyridin-4-yl)-4-(1-methyl-1H-1,2,3-triazol-4-yl)-N-(piperidin-3-yl)benzamide]
13 | 6.85 | Cc1nnc(-c2ccc(C(=O)N(c3nccc4cccc(C)c34)[C@@H]3CCCNC3)c(F)c2)o1 [Example 394, (R)-2-fluoro-4-(5-methyl-1,3,4-oxadiazol-2-yl)-N-(8-methylisoquinolin-1-yl)-N-(piperidin-3-yl)benzamide]
14 | 6.04 | Cn1cc(-c2ccc(C(=O)N(c3nccc4sc(C(N)=O)cc34)[C@@H]3CCCNC3)c(F)c2)nn1 [Example 552, 4-[[2-fluoro-4-(1-methyltriazol-4-yl)benzoyl]-[(3R)-3-piperidyl]amino] thieno [3,2-c] pyridine-2-carboxamide]
15 | 6.80 | Cc1nnc(-c2ccc(C(=O)N(c3nccc4scc(C)c34)[C@@H]3CCCNC3)cn2)o1 [Example 919, 6-(5-methyl-1,3,4-oxadiazol-2-yl)-N-(3-methylthieno[3,2-c]pyridin-4-yl)-N-[(3R)-3-piperidyl]pyridine-3-carboxamide]
16 | 6.54 | Cn1cc(-c2ccc3c(N(C(=O)c4ccc(-c5cn(C)nn5)cc4F)[C@@H]4CCCNC4)nccc3c2)cn1 [Example 445, (R)-2-fluoro-4-(1-methyl-1H-1,2,3-triazol-4-yl)-N-(6-(1-methyl-1H-pyrazol-4-yl)isoquinolin-1-yl)-N-(piperidin-3-yl)benzamide]
17 | 6.72 | COCC#Cc1ccnc(Nc2ccc(C(=O)N(c3nccc4cccc(C)c34)[C@@H]3CCCNC3)c(F)c2)n1 [Example 751, (R)-2-fluoro-4-((4-(3-methoxyprop-1-yn-1-yl)pyrimidin-2-yl)amino)-N-(8-methylisoquinolin-1-yl)-N-(piperidin-3-yl)benzamide]
18 | 7.10 | Cc1nnc(-c2ccc(C(=O)N(c3nccc4cc(Cl)cc(C)c34)[C@@H]3CCCNC3)cn2)s1 [Example 709, (R)—N-(6-chloro-8-methylisoquinolin-1-yl)-6-(5-methyl-1,3,4-thiadiazol-2-yl)-N-(piperidin-3-yl)nicotinamide]
19 | 6.27 | Cc1cccc2ccnc(N(C(=O)c3ccc(-c4cncnc4N)cc3F)[C@@H]3CCCNC3)c12 [Example 353, (R)-4-(4-aminopyrimidin-5-yl)-2-fluoro-N-(8-methylisoquinolin-1-yl)-N-(piperidin-3-yl)benzamide]
20 | 5.59 | O=C(c1ccc(-n2nnc3cccnc32)cc1F)N(c1nccc2cnccc12)[C@@H]1CCCNC1 [Example 849, (R)-4-(3H-[1,2,3]triazolo[4,5-b]pyridin-3-yl)-2-fluoro-N-(2,6-naphthyridin-1-yl)-N-(piperidin-3-yl)benzamide]
21 | 7.10 | Cc1csc2ccnc(N(C(=O)c3ccc(-c4cn(C)nn4)cc3)[C@@H]3CCCNC3)c12 [Example 799, (R)-4-(1-methyl-1H-1,2,3-triazol-4-yl)-N-(3-methylthieno[3,2-c]pyridin-4-yl)-N-(piperidin-3-yl)benzamide]
22 | 7.08 | Cc1cccc2ccnc(N(C(=O)c3ccc(Nc4nccc(C5=CCN(C)CC5)n4)cc3F)[C@@H]3CCCNC3)c12 [Example 682, (R)-2-fluoro-4-((4-(1-methyl-1,2,3,6-tetrahydropyridin-4-yl)pyrimidin-2-yl)amino)-N-(8-methylisoquinolin-1-yl)-N-(piperidin-3-yl)benzamide]
23 | 6.49 | CC(C)(C#N)c1cc(-c2cc3c(N(C(=O)c4ccc(-n5nnc6cccnc65)cc4F)[C@@H]4CCCNC4)nccc3s2)ccn1 [Example 463]
